Measurements as given in patent publication US20240368178A1, “IMIDAZOCYCLIC COMPOUND AND APPLICATION THEREOF” (DONGBAO PURPLE STAR (HANGZHOU) BIOPHARMACEUTICAL CO., LTD., priority 2021, published 2024).

How the values were obtained:
Human-GLP-1 receptor = Human-GLP-1 receptor (Homo sapiens (Human), UniProt P43220); assay: In vitro cell activity assay (cAMP, HEK293 GLP-1 cells); assay type: cell-based; settings: cAMP detection
Experimental: Experimental Example 1: In Vitro Cell Activity Assay
The host cell HEK293 for GLP-1 was constructed by WuXi AppTec (Shanghai) Co., Ltd.
cAMP Detection Kit, Cisbio (Cat #62AM4PEJ); 1M HEPES, Invitrogen (Cat #15630-106); 1×HBSS, Invitrogen (Cat #14025); BSA, Sigma (Cat #B2064); IBMX, Sigma (Cat #I5879); Exenatide, Hao Yuan (HY-13443A).
The compounds were prepared into a working solution with a concentration of 30 μM using DMSO. In this assay, each sample was used in an amount of 5 μL.
• 24.5 mL of Hanks Buffer Saline Solution (HBSS), final concentration: lx; • 125 μL of HEPES 1M, final concentration: 5 mM; • 333 μL of 7.5% BSA Solution, final concentration: 0.1%; • 25 μL of IBMX 500 mmol/L, final concentration: 0.5 mmol/L.
Preparation of cAMP assay reagent: 250 μL of cAMP-D2 and 250 μL of anti-cAMP cryptate reagent were added to 4 mL of lysis buffer and mixed gently.
The compound to be tested was diluted 3-fold at 10 points with a starting concentration of 30 μM, and the dilution was completed using Bravo.
Exenatide, used as a control compound, was diluted 3-fold at 10 points with a starting concentration of 500 nM, and the dilution was completed using Bravo. […]
• 1) A GLP-1 cell cryopreservation tube was rapidly thawed in a 37° C. water bath. • 2) The cell suspension was transferred to a 15 mL Transfer centrifuge tube and gently rinsed with 10 mL of HBSS. • 3) The centrifuge tube was centrifuged at 1000 rpm for 1 minute at room temperature. • 4) The supernatant was discarded. • 5) The cells at the bottom were gently dispersed, then rinsed with 10 mL of HBSS, centrifuged to sedimentation, and finally resuspended in the experimental buffer. • 6) The cell density and activity were measured using Vi-cell. • 7) The concentration of GLP-1 cells was diluted to 2.0*105/mL with the experimental buffer. • 8) […] of the diluted cell suspension was transferred to the OptiPlate-384 plate. • 9) The plate was incubated at room temperature for 30 minutes. […]
TopSeal-A was removed and the result was read in EnVision.

human hepatocytes = assay: HMS CLint (liver) hepatocyte metabolic stability, human; assay type: in vitro ADME
Experimental: (§1) Experimental purpose: to test the metabolic stability of the test sample in human and rat liver cells.
(§2) • (1) test compound (10 mM), reference substance: 7-ethoxycoumarin (30 mM), 7-hydroxycoumarin (reference substance, 30 mM); • mouse hepatocytes with cell viability of 73.8%, supplier Cat No.: BioreclamationlVTM005052; • rat hepatocytes with cell viability of 78.3%, supplier Cat No.: BioreclamationlVTM00005-T; • canine hepatocytes with cell viability of 80.2%, supplier Cat No.: BioreclamationlVTM00205; • monkey liver cells with cell viability of 80.9%, supplier Cat No.: RILD HP—SXH-02M; • human hepatocytes with cell viability of 94.6%, supplier Cat No.: Bioreclamation IVTX008001. • (2) Buffer system:
(§3) Thawing medium: Williams' medium E containing 5% fetal bovine serum, 30% Percoll solution, and other auxiliary materials.
(§4) Incubation medium: Williams' medium E (without phenol red) containing 2 mM L-glutamine and 25 mM 4-(2-hydroxyethyl)-1-piperazineethanesulfonic acid.
(§5) Termination solution: acetonitrile containing 200 ng/mL tolbutamide and labetalol as internal standard. […]
(§6) The residual rates of the test compound and the control compound were determined using the following formula: […]
(§7) The elimination rate constant (k) of the test compound and the control compound in hepatocytes was calculated by plotting the logarithm of the residual rate against time. […]

rat hepatocytes = assay: HMS CLint (liver) hepatocyte metabolic stability, rat; assay type: in vitro ADME
Experimental: as §1, §2, §3, §4, §5, §6, §7

Sequence of Human-GLP-1 receptor (P43220 24-463): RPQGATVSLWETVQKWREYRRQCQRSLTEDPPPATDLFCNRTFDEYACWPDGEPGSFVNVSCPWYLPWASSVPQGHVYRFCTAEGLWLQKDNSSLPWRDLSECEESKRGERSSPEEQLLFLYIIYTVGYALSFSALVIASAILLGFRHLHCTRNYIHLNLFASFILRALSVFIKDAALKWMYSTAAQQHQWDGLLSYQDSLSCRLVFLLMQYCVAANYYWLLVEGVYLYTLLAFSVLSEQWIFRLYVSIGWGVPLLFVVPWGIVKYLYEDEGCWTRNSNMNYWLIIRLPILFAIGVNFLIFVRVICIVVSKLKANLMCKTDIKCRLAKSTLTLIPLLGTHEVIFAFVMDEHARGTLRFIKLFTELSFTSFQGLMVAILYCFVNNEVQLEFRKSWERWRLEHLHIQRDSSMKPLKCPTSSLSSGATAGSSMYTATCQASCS

SMILES	EC50 (Human-GLP-1 receptor)	HMS Human (human hepatocytes)	HMS Rat (rat hepatocytes)
C[C@]1(c2ccc(Cl)cn2)Oc2cccc(C3CCN(Cc4nc5sc(C(=O)O)cc5n4C[C@@H]4CCO4)CC3)c2O1 (single isomer, unassigned) [Compound 002]	0.88 nM	<1.07 L/h/kg	8.322 L/h/kg
C[C@@]1(c2ccc(Cl)cn2)Oc2cccc(N3CCN(Cc4nc5sc(C(=O)O)cc5n4C[C@H]4CCO4)CC3)c2O1 [Compound 003]	0.51 nM	1.16 L/h/kg	0.306 L/h/kg
